We go through three compounds from patent US20110077206A1, “USE OF HNF4ALPHA FOR TREATMENT OF HUMAN MALIGNANT SOLID TUMORS THROUGH INDUCTION-DIFFERENTIATION THERAPY” (SECOND MILITARY MEDICAL UNIVERSITY, priority 2008, published 2011).

One assay deals with solid tumors. Description: In vivo study of control substances on solid tumor differentiation. The conditions noted are these: background statement of inventors' study.
Assay [1] relates to Human hepatoma cell lines HepG2 and Hep3B. Description: In vitro effects of control substances on hepatoma cell lines (RT-PCR, immunohistochemistry, morphology). The format is cell-based. The conditions noted are these: for apoptosis / proliferation: HepG2 and Hep3B; for regulation effect on in vitro differentiation of hepatocellular carcinoma cell lines: background statement of inventors' study. As for the experimental part: Human hepatoma cell lines HepG2 and Hep3B were inoculated onto the six-well plate with a concentration of 5×10^5 cells/dish, and the all-trans retinoic acid, somatostatin, tumor necrosis factor, and arsenic trioxide were added respectively. The total RNA was extracted by Trizol kit, and reverse transcriptase reaction was carried out for 2 hrs. 1 μl diluted reverse transcription product was taken and used as template for PCR amplification to detect the mRNA expression of liver cell-related function genes. The proliferation and apoptosis related proteins such as Cyclin, Bax, Bcl-2 and so on was measured by immunohistochemistry.

For assay [2] the test system is unchanged. Description: Flow cytometry of CD133+ cell proportion. The format is cell-based. The note with it: data not shown. As for the experimental part:
1. […] After 24 hrs, the medium was replaced with fresh DMEM culture solution containing 10% FBS. After three days, the cells were collected, and the CD133/1-PE (Miltenyi Biotec, Auburn, Calif.) was used as primary antibody for incubation, and the proportion of CD133+ cells was determined by flow cytometry.

As to arsenic trioxide, the “in vivo induction of differentiation of solid tumors” value with solid tumors is recorded as “can not effectively induce the differentiation of solid tumors”. Also, in assay [1], the apoptosis entry is “significantly increased”, the proliferation entry was “reduced” and the “regulation effect on in vitro differentiation of hepatocellular carcinoma cell lines” value is reported as “no drugs or proteins with clear differentiation therapy effects”. Besides, the “differentiation induction effect on tumor stem cells” value in assay [2] was “no significant differentiation induction effect”.
Consider tumor necrosis factor, for which the “in vivo induction of differentiation of solid tumors” value in the assay on solid tumors is on record as “can not effectively induce the differentiation of solid tumors”. In addition, in assay [1], the apoptosis result was “significantly increased”, the proliferation entry is on record as “reduced” and the “regulation effect on in vitro differentiation of hepatocellular carcinoma cell lines” value was “no drugs or proteins with clear differentiation therapy effects”.
In the case of `CC1=C(/C=C/C(C)=C/C=C/C(C)=C/C(=O)O)C(C)(C)CCC1` [all-trans retinoic acid], the “in vivo induction of differentiation of solid tumors” value in the assay on solid tumors was “can not effectively induce the differentiation of solid tumors”. Moreover, the “regulation effect on in vitro differentiation of hepatocellular carcinoma cell lines” value in assay [1] is reported as “no drugs or proteins with clear differentiation therapy effects”. Besides, the “differentiation induction effect on tumor stem cells” value in assay [2] is on record as “no significant differentiation induction effect”.
